Measured values from patent US12697352B2, “Instructions for composition and sensitivity” (Azura Ophthalmics Ltd., priority 2020, dated 2026).
Read-outs that look alike come from different tables or passages of the source.

Legend:
[1] = test system: patients
Excerpt: In a clinical study three different concentrations were used; 0.1 wt. %, (10 subjects) 0.5 wt. % (12 subjects) and 1 wt. % (26 subjects).

[2] = test system: human subject
Method: In most instances, the treatment is applied on a biweekly basis, however some patients move to daily application based on prespecified protocol criteria. Because the ointment-based composition is known to mix with tear fluid and cause blurry vision, individuals in this study are advised to apply the treatment prior to bed so as to avoid risks associated with reduced vision acuity. […] The in-office applications are conducted at specific, pre-determined time points. In these instances, the treatment is not applied before bed but rather is performed during daylight hours.

[3] = test system: patients; conditions: in vivo
Method: In a first study patients were instructed to dose in both the evening, between visits, and in the daytime during regular scheduled clinic visits as part of the study protocol. Study patients received a 2-week run-in on a placebo which was administered twice weekly for a period of two weeks.
Adverse events comprise a feeling of grittiness, foreign body feeling, stinging, blurry vision, redness, tired eyes, water eyes, irritation, lid abnormalities, burning, corneal abrasion, photophobia, staining, or dry eye disorder (DED).

[4] = test system: meibomian gland disorder (MGD) patients; conditions: twice a week, 3 month time point
Method: The drug was applied twice a week and final evaluation was done at the 3 month time point in which the primary outcome of Meibomian Gland Score (MGS) was assessed.

[5] = test system: rabbits; conditions: dose about 4 mg SeS2, concentration up to 2.5 wt. %, ointment applied over the eyelid margin
[6] = test system: seborrheic blepharitis; conditions: cited from earlier work
[7] = in vivo; cited from earlier work

selenium disulfide [SeS2]
development of keratitis ([1]; human, in vivo): no development of keratitis | occurrence of keratitis with bedtime applications ([1]; human, in vivo): without a single occurrence of keratitis | subjects who developed keratitis or keratitis related symptoms ([1]; human, in vivo): four | total OSDI, VAS and SPEED ([1]; one patient, 1 wt. %, first month, twice weekly at home before bedtime): significant improvement | health outcomes by OSDI, VAS and SPEED ([2]; at least one patient, 1 wt. %, one month of treatment): improved health outcomes | keratitis ([2]; in vivo): Keratitis is not observed | patients noting symptoms of keratitis ([2]; in vivo): four | reduction in the incidence of ocular adverse events [3]: 75% | reduction of rate of ocular adverse events (ocular AE) [3]: at least 50% | average change from baseline in Meibomian Gland Score (MGS) ([4]; 9 patients applying with finger): 10 (+/−8.2) | average change from baseline in Meibomian Gland Score (MGS) ([4]; 13 patients using the applicator (swab)): 2.3 (+/−4.4) | tolerability [5]: well tolerated | efficacy in treating seborrheic blepharitis ([6]; SeS2 0.5%, conclusion of most investigators): effective | adverse events following topical ocular use ([6]; in vivo): superficial punctate keratitis and conjunctivitis | safe concentration of ophthalmic preparation for use in humans ([6]; in vivo): 0.5% | adverse effect of shampooing [7]: diffuse hair loss | contact dermatitis or photo-contact dermatitis in tinea versicolor treatment [7]: None of the investigators encountered a single case | skin irritant effect [7]: can produce contact dermatitis | skin reaction after shampoo application [7]: circumscribed eczematous plaques on the light-exposed areas | time to resolution of hair loss after discontinuance [7]: 1-2 weeks
